Here are results for eleven compounds from US20100317703A1, “METHOD FOR INHIBITING BRASSININ OXIDASE” (UNIVERSITY OF SASKATCHEWAN, priority 2009, published 2010).

For test [1], the system named is mycelial cultures of L. maculans. Briefly: Antifungal activity: total protein content of cell-free extracts of treated mycelial cultures. Type of test: cell-based, Leptosphaeria maculans. To be noted: 24 h, control culture = 1.0. As for the experimental part:
(§1) Liquid cultures of L. maculans (virulent isolate BJ-125, IBCN collection, AAFC) were handled as described in the literature.^13 Fungal spores were subcultured on V8 agar under continuous light at 23±1° C.; after 15 days, fungal spores were collected aseptically and stored at −20° C.^14 Liquid cultures were initiated by inoculating minimal media (100 mL)^15 with fungal spores at 10^7/mL in Erlenmeyer flasks, followed by incubation on a shaker under constant light at 23±1° C.
(§2) For analysis of BO induction, 72 h old liquid cultures (20 mL) were co-incubated with test compounds (final concentrations in culture 0.10, 0.20, and 0.50 mM), and after an additional incubation for 24 h, the mycelia were separated from the culture broth by filtration.
(§3) Frozen mycelia (0.3-1.4 g) from L. maculans were suspended in ice-cold extraction buffer (1 mL) and ground (mortar) for 5 min. The extraction buffer consisted of diethanolamine(DEA, 25 mM, pH 8.3), 5% (v/v) glycerol, D,L-dithiothreitol (DTT, 1 mM), and 1/200 (v/v) protease inhibitor cocktail (P-8215, Sigma-Aldrich Canada). The homogenate was centrifuged at 4° C. for 30 min at 50000 g. The resulting supernatant was used for determination of specific activity of BO. Protein concentrations were determined as described by Bradford^16 using the Coomassie Brilliant Blue method with BSA as a standard.
(§4) Mycelial cultures of L. maculans were incubated with the test compounds (0.10, 0.20, and 0.50 mM) for 24 h to evaluate potential induction of BO activity. The cultures were filtered, the mycelia were extracted with extraction buffer, and the resulting cell-free extracts were analyzed for BO activity using brassinin (1) as substrate. The total protein content of each cell-free extract was determined using a calibration curve built using BSA.

The subject of test [2] is brassinin oxidase (BO) activity in mycelial cultures of L. maculans. Put plainly: Inducer effect of paldoxins: BO activity in cell-free extracts of treated mycelial cultures. To be noted: 24 h, control culture = 1.0. Type of test: cell-based, Leptosphaeria maculans. As for the experimental part: as §1, §2, §3
(§5) The reaction mixture contained DEA (20 mM, pH 8.3), DTT (1 mM), 0.1% (v/v) Triton X-100, brassinin (1, 1.0 mM), phenazine (0.50 mM), and protein extract (50-100 μL) in a total volume of 500 μL. The reaction was carried out at 24° C. for 20 min. A control reaction was stopped by the addition of EtOAc (2 mL) at t=0. The product was extracted with EtOAc (2 mL) and concentrated to dryness. The extract was dissolved in CH3CN (200 μL) and analyzed by HPLC-DAD. The amounts of brassinin (1) and indole-3-carboxaldehyde (3) in the reaction assay were determined using calibration curves built with […]. One enzyme unit (U) is defined as the amount of the enzyme that catalyzes the conversion of one micromole of substrate per minute (μmol·min^−1=U).
as §4

The test system of test [3] is brassinin oxidase (BO). Put plainly: Inhibitory effect of paldoxins on purified BO (brassinin as substrate, HPLC-DAD). Type of test: biochemical, Leptosphaeria maculans. The following applies: for Inhibiton (%) of BO: brassinin 0.10 mM, purified BO, ± SD of four independent experiments. As for the experimental part: For purification of brassinin oxidase, 600 mL of 48 h old liquid cultures prepared as described above, were incubated with 3-phenylindole (19, 0.05 mM final concentration in cultures to induce BO) for an additional 24 h and then gravity filtered to separate mycelia from culture broth. The mycelia was stored at −20° C. up to 72 h and used to obtain protein extracts containing BO activity.
as §5
The purification of BO was performed in four steps as previously described.^17 The purified enzyme was used for screening test compounds for inhibitory activity. To determine potential inhibitors of BO, inhibition experiments were carried out using brassinin (1, 0.10 mM final concentration) and test compounds (0.10 and 0.30 mM final concentrations). Standard deviation values for assays were determined from four independent experiments.
The inhibitory effects of test compounds on BO activity were tested at 0.10 mM and 0.30 mM using brassinin (1) as substrate (0.10 mM) and purified BO.

The subject of test [4] is brassinin oxidase (BO). To be noted: 0.30 mM; reference compound, cited from ref. 17; cited from earlier work.
The mark [5] stands for this setting: 0.10 mM added to mycelial cultures.
Where [6] appears, read: 0.20 mM added to mycelial cultures.
Where [7] appears, read: 0.50 mM added to mycelial cultures.

Structures are written as SMILES.

By Km is commonly meant the concentration of substrate that gives half-maximal velocity.

Consider `c1ccc2c(-c3nccs3)c[nH]c2c1` [Camalexin], for which the entries for the “Relative Protein” value in test [1] (setting [5]), in test [1] (setting [6]) and in test [1] (setting [7]) were 0.28, 0.24 and 0.10, respectively. The “Relative Specific Activity of BO” value worked out at 4.5 ± 0.5 in test [2] (setting [5]), 6.9±0.3 in test [2] (setting [6]) and 2.5 ± 0.1 in test [2] (setting [7]). The “Inhibiton (%) of BO” value in the test on brassinin oxidase (BO) [3] (test compound 0.10 mM) is recorded as 30 ± 4%; in the test with brassinin oxidase (BO) [3] (test compound 0.30 mM), 53 ± 4%; in the test on brassinin oxidase (BO) [3] (test compound 0.30 mM, listed as Camalexin I(h)), 53 ± 7%; in the test on brassinin oxidase (BO) [3] (test compound 0.30 mM, listed as camalexin) it was 53%.

Consider `CSC1=NCc2c([nH]c3ccccc23)S1` [Cyclobrassinin], for which the “Inhibiton (%) of BO” value stood at 23 ± 6% with brassinin oxidase (BO) [3] (test compound 0.10 mM) and 37 ± 8% in the test on brassinin oxidase (BO) [3] (test compound 0.30 mM).

With `Fc1ccc2[nH]cc(-c3nccs3)c2c1` [I(a), 5-Fluorocamalexin], the “Relative Protein” value in test [1] (setting [5]) is listed as 0.30; in test [1] (setting [6]), 0.23; in test [1] (setting [7]), 0.19. Also, the “Relative Specific Activity of BO” value in test [2] (setting [5]) came out at 5.0 ± 0.2; in test [2] (setting [6]), 4.9 ± 0.4; in test [2] (setting [7]), 7.9 ± 0.6. In addition, the “Inhibiton (%) of BO” value is listed as 47 ± 5% in the test on brassinin oxidase (BO) [3] (test compound 0.10 mM); 63 ± 2% with brassinin oxidase (BO) [3] (test compound 0.30 mM, listed as 5-Fluorocamalexin I(a)); “ca. 63%” in the test with brassinin oxidase (BO) [3] (test compound 0.30 mM, listed as 5-fluorocamalexin I(a)).

On to `Fc1ccc2c(-c3nccs3)c[nH]c2c1` [I(b), 6-Fluorocamalexin], for which the “Relative Protein” value is reported as 0.36 in test [1] (setting [5]), 0.28 in test [1] (setting [6]) and 0.24 in test [1] (setting [7]). Moreover, the “Relative Specific Activity of BO” value is on record as 3.9 ± 0.1 in test [2] (setting [5]), 4.0 ± 0.2 in test [2] (setting [6]) and 1.8 ± 0.3 in test [2] (setting [7]). Moreover, the “Inhibiton (%) of BO” value in the test on brassinin oxidase (BO) [3] (test compound 0.10 mM) is 29 ± 10%; with brassinin oxidase (BO) [3] (test compound 0.30 mM) it was 46%.

With `COc1ccc2[nH]cc(-c3nccs3)c2c1` [I(c), 5-Methoxycamalexin], the “Relative Protein” value is on record as 0.28 in test [1] (setting [5]), 0.24 in test [1] (setting [6]) and 0.13 in test [1] (setting [7]). Further, the figures for the “Relative Specific Activity of BO” value in test [2] (setting [5]), in test [2] (setting [6]) and in test [2] (setting [7]) were 1.7 ± 0.3, 5.8 ± 0.6 and 1.6 ± 0.3, respectively. The “Inhibiton (%) of BO” value in the test on brassinin oxidase (BO) [3] (test compound 0.10 mM) is listed as 51 ± 4%; in the test with brassinin oxidase (BO) [3] (test compound 0.30 mM, listed as 5-Methoxycamalexin I(c)), 72 ± 1%; with brassinin oxidase (BO) [3] (test compound 0.30 mM, listed as 5-methoxycamalexin I(c)), “ca. 72%”.

Consider `COc1ccc2c(-c3nccs3)c[nH]c2c1` [I(d), 6-Methoxycamalexin], for which the “Relative Protein” value in test [1] (setting [5]) came to 0.27; in test [1] (setting [6]) it was 0.16; in test [1] (setting [7]) it was 0.11. Moreover, the results for the “Relative Specific Activity of BO” value in test [2] (setting [5]), in test [2] (setting [6]) and in test [2] (setting [7]) were 2.3 ± 0.1, 3.7 ± 0.2 and 4.0 ± 0.1, respectively. Also, the “Inhibiton (%) of BO” value in the test with brassinin oxidase (BO) [3] (test compound 0.10 mM) is reported as 41 ± 6%; in the test with brassinin oxidase (BO) [3] (test compound 0.30 mM, listed as 6-Methoxycamalexin I(d)), 63 ± 5%; in the test on brassinin oxidase (BO) [3] (test compound 0.30 mM, listed as 6-methoxycamalexin I(b)), “ca. 63%”.

`Fc1ccc2c(-c3ccccc3)c[nH]c2c1` [I(e), 6-Fluoro-3-phenylindole]: the “Inhibiton (%) of BO” value amounted to 11 ± 4% in the test on brassinin oxidase (BO) [3] (test compound 0.10 mM) and 17 ± 6% in the test with brassinin oxidase (BO) [3] (test compound 0.30 mM).

Turning to `c1ccc2cc(-c3cnsc3)ccc2c1` [I(g)], the results for the “Relative Protein” value in test [1] (setting [5]), in test [1] (setting [6]) and in test [1] (setting [7]) were 0.26, 0.17 and 0.16, respectively. Moreover, the “Relative Specific Activity of BO” value in test [2] (setting [5]) came out at 2.6 ± 0.2; in test [2] (setting [6]), 8.5 ± 0.1; in test [2] (setting [7]) it was 16.3 ± 3.3.

Take `CSC(=S)NCc1cc2ccccc2[nH]1` [Isobrassinin]: the “Inhibiton (%) of BO” value is listed as 11 ± 5% in the test on brassinin oxidase (BO) [3] (test compound 0.10 mM) and 23 ± 6% with brassinin oxidase (BO) [3] (test compound 0.30 mM).

Consider `c1ccc2[nH]c(-c3cscn3)nc2c1` [Thiabendazole, reference compound], for which the BO inhibitory activity entry in the test with brassinin oxidase (BO) [4] is listed as “ca. 25%”. In addition, the “Relative Protein” value in test [1] (setting [5]) worked out at 0.35; in test [1] (setting [6]), 0.28; in test [1] (setting [7]) it was 0.06. For the same compound, the “Relative Specific Activity of BO” value in test [2] (setting [5]) came out at 1.9 ± 0.2; in test [2] (setting [6]), 4.1 ± 0.2; in test [2] (setting [7]) it was 4.9 ± 0.3. The “Inhibiton (%) of BO” value in the test on brassinin oxidase (BO) [3] (test compound 0.10 mM) turned out to be 16 ± 3%; in the test with brassinin oxidase (BO) [3] (test compound 0.30 mM), 25 ± 7%.

In the case of `CSC(=S)NCc1c[nH]c2ccccc12` [brassinin, Brassinin], in the test with brassinin oxidase (BO) [3] (under the enzyme assay conditions), the Km worked out at 150 µM.
